EC50 data for 27 molecules are collected here from US11912686B2 (Gilead Sciences, Inc., priority 2020, dated 2024).

human LPAR1, sequence (Q92633 whole entry): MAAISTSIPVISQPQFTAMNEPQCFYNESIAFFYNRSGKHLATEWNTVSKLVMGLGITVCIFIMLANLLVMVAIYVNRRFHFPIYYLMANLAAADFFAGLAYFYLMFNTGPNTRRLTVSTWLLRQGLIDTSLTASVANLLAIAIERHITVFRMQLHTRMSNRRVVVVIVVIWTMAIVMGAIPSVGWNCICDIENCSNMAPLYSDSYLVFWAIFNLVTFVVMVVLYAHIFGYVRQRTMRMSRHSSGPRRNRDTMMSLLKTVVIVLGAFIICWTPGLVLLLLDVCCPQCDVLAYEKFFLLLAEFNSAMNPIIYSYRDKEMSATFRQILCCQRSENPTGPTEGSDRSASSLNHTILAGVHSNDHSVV

This experiment addresses human LPAR1 (Homo sapiens (Human), UniProt Q92633). As to the kind of experiment: LPAR1 intracellular calcium mobilization assay (antagonist mode, FLIPR). In kind it is cell-based. The note with it: CHO-K1 EDG2 cells expressing human LPAR1, LPA 18:2 at EC80 (100 nM), test compound 0.5 nM to 10 μM. For orientation: A change in cytosolic calcium serves as a functional read-out for many receptors and channels.
Regarding `CC(=O)Nc1ccc(-c2nnn(C)c2NC(=O)OC(C)c2ccc(F)nc2Cl)nc1` (stereo not drawn) [Compound 182, 1-(2-chloro-6-fluoropyridin-3-yl)ethyl (4-(5-acetamidopyridin-2-yl)-1-methyl-1H-1,2,3-triazol-5-yl)carbamate], the EC50 is 2050 nM. Regarding `C[C@@H](OC(=O)Nc1c(-c2cc(F)c(NC(=O)C3(C#N)CC3)cn2)nnn1C)c1cccnc1Cl` [Compound 183, (R)-1-(2-chloropyridin-3-yl)ethyl (4-(5-(1-cyanocyclopropane-1-carboxamido)-4-fluoropyridin-2-yl)-1-methyl-1H-1,2,3-triazol-5-yl)carbamate], the EC50 was 1060 nM. With `C[C@@H](OC(=O)Nc1c(-c2cc(F)c(NC(=O)C34CC(C#N)(C3)C4)cn2)nnn1C)c1cccnc1Cl` [Compound 184, (R)-1-(2-chloropyridin-3-yl)ethyl (4-(5-(3-cyanobicyclo[1.1.1]pentane-1-carboxamido)-4-fluoropyridin-2-yl)-1-methyl-1H-1,2,3-triazol-5-yl)carbamate] the figure was 81.8 nM; with `C[C@@H](OC(=O)Nc1c(-c2ccc(NC(=O)C3(C#N)CC(F)(F)C3)cn2)nnn1C)c1cccnc1Cl` [Compound 186, (R)-1-(2-chloropyridin-3-yl)ethyl (4-(5-(1-cyano-3,3-difluorocyclobutane-1-carboxamido)pyridin-2-yl)-1-methyl-1H-1,2,3-triazol-5-yl)carbamate], 100 nM; with `CNC(=O)Nc1ccc(-c2nnn(C)c2NC(=O)O[C@H](CF)c2cccc(F)c2)nc1` [Compound 187, (S)-2-fluoro-1-(3-fluorophenyl)ethyl (1-methyl-4-(5-(3-methylureido)pyridin-2-yl)-1H-1,2,3-triazol-5-yl)carbamate], 1240 nM.

Consider `C[C@@H](OC(=O)Nc1c(-c2ccc(NC(=O)N3CCC3)cn2)nnn1C)c1cccnc1Cl` [Compound 188, (R)-1-(2-chloropyridin-3-yl)ethyl (4-(5-(azetidine-1-carboxamido)pyridin-2-yl)-1-methyl-1H-1,2,3-triazol-5-yl)carbamate], for which the EC50 was 452 nM. In the case of `C[C@@H]1CCN(C(=O)Nc2ccc(-c3nnn(C)c3NC(=O)O[C@H](C)c3cccnc3Cl)nc2)C1` [Compound 190, (R)-1-(2-chloropyridin-3-yl)ethyl (1-methyl-4-(5-((R)-3-methylpyrrolidine-1-carboxamido)pyridin-2-yl)-1H-1,2,3-triazol-5-yl)carbamate], the EC50 is 359 nM. Consider `C[C@@H](OC(=O)Nc1c(-c2ccc(NC(=O)N3CC(C#N)C3)cn2)nnn1C)c1cccnc1Cl` [Compound 191, (R)-1-(2-chloropyridin-3-yl)ethyl (4-(5-(3-cyanoazetidine-1-carboxamido)pyridin-2-yl)-1-methyl-1H-1,2,3-triazol-5-yl)carbamate], for which the EC50 was found to be 620 nM. With `C[C@@H]1CCCN1C(=O)Nc1ccc(-c2nnn(C)c2NC(=O)O[C@H](C)c2cccnc2Cl)nc1` [Compound 192, (R)-1-(2-chloropyridin-3-yl)ethyl (1-methyl-4-(5-((R)-2-methylpyrrolidine-1-carboxamido)pyridin-2-yl)-1H-1,2,3-triazol-5-yl)carbamate] the figure was 10000 nM; with `C[C@@H](OC(=O)Nc1c(-c2ccc(NC(=O)N3CCC(F)(F)C3)cn2)nnn1C)c1cccnc1Cl` [Compound 193, (R)-1-(2-chloropyridin-3-yl)ethyl (4-(5-(3,3-difluoropyrrolidine-1-carboxamido)pyridin-2-yl)-1-methyl-1H-1,2,3-triazol-5-yl)carbamate], 287 nM. In the case of `C[C@@H](OC(=O)Nc1c(-c2ccc(NC(=O)N3CCCC3)cn2)nnn1C)c1cccnc1Cl` [Compound 194, (R)-1-(2-chloropyridin-3-yl)ethyl (1-methyl-4-(5-(pyrrolidine-1-carboxamido)pyridin-2-yl)-1H-1,2,3-triazol-5-yl)carbamate], the EC50 was 832 nM. Turning to `C[C@@H](OC(=O)Nc1c(-c2ccc(NC(=O)[C@H]3CNC(=O)C3)cn2)nnn1C)c1cccnc1Cl` [Compound 195, (R)-1-(2-chloropyridin-3-yl)ethyl (1-methyl-4-(5-((R)-5-oxopyrrolidine-3-carboxamido)pyridin-2-yl)-1H-1,2,3-triazol-5-yl)carbamate], the EC50 is 1540 nM. As for `C[C@@H](OC(=O)Nc1c(-c2ccc(NC(=O)CC3OCCO3)cn2)nnn1C)c1cccnc1Cl` [Compound 196, (R)-1-(2-chloropyridin-3-yl)ethyl (4-(5 (2-(1,3-dioxolan-2-yl)acetamido)pyridin-2-yl)-1-methyl-1H-1,2,3-triazol-5-yl)carbamate], the EC50 came out at 1030 nM. On to `C[C@@H](OC(=O)Nc1c(-c2ccc(NC(=O)[C@@H]3C[C@H]3c3ccccc3)cn2)nnn1C)c1cccnc1Cl` [Compound 197, (R)-1-(2-chloropyridin-3-yl)ethyl (1-methyl-4-(5-((1R,2R)-2-phenylcyclopropane-1-carboxamido)pyridin-2-yl)-1H-1,2,3-triazol-5-yl)carbamate], for which the EC50 came out at 5.2 nM.

In the case of `C[C@@H](OC(=O)Nc1c(-c2ccc(NC(=O)C3(c4cccnc4)CC(F)(F)C3)cn2)nnn1C)c1cccnc1Cl` [Compound 198, (R)-1-(2-chloropyridin-3-yl)ethyl (4-(5-(3,3-difluoro-1-(pyridin-3-yl)cyclobutane-1-carboxamido)pyridin-2-yl)-1-methyl-1H-1,2,3-triazol-5-yl)carbamate], the EC50 stood at 613 nM. For the molecule `C[C@@H](OC(=O)Nc1c(-c2ccc(NC(=O)C3C(F)(F)C34CC4)cn2)nnn1C)c1cccnc1Cl` (stereo partly drawn) [Compound 199, (R)-1-(2-chloropyridin-3-yl)ethyl (4-(5-(2,2-difluorospiro[2.2]pentane-1-carboxamido)pyridin-2-yl)-1-methyl-1H-1,2,3-triazol-5-yl)carbamate], the EC50 was determined as 65.7 nM. Take `C[C@@H](OC(=O)Nc1c(-c2ccc(NC(=O)C3(CO)CC(F)(F)C3)cn2)nnn1C)c1cccnc1Cl` [Compound 200, (R)-1-(2-chloropyridin-3-yl)ethyl (4-(5-(3,3-difluoro-1-(hydroxymethyl)cyclobutane-1-carboxamido)pyridin-2-yl)-1-methyl-1H-1,2,3-triazol-5-yl)carbamate]: the EC50 turned out to be 94 nM. In the case of `C[C@@H](OC(=O)Nc1c(-c2ccc(NC(=O)[C@]3(C#N)C[C@H]3C(F)(F)F)cn2)nnn1C)c1cccnc1Cl` [Compound 201, (R)-1-(2-chloropyridin-3-yl)ethyl (4-(5-((1R,2R)-1-cyano-2-(trifluoromethyl)cyclopropane-1-carboxamido)pyridin-2-yl)-1-methyl-1H-1,2,3-triazol-5-yl)carbamate], the EC50 is 146 nM. On to `C[C@@H](OC(=O)Nc1c(-c2ccc(NC(=O)[C@@]3(C#N)C[C@@H]3C(F)(F)F)cn2)nnn1C)c1cccnc1Cl` [Compound 202, (R)-1-(2-chloropyridin-3-yl)ethyl (4-(5-((1S,2S)-1-cyano-2-(trifluoromethyl)cyclopropane-1-carboxamido)pyridin-2-yl)-1-methyl-1H-1,2,3-triazol-5-yl)carbamate], for which the EC50 turned out to be 5 nM. As to `C[C@H](C#N)C(=O)Nc1ccc(-c2nnn(C)c2NC(=O)O[C@H](C)c2cccnc2Cl)nc1` [Compound 203, (R)-1-(2-chloropyridin-3-yl)ethyl (4-(5-((R)-2-cyanopropanamido)pyridin-2-yl)-1-methyl-1H-1,2,3-triazol-5-yl)carbamate], the EC50 stood at 94.8 nM. Consider `C[C@@H](C#N)C(=O)Nc1ccc(-c2nnn(C)c2NC(=O)O[C@H](C)c2cccnc2Cl)nc1` [Compound 204, (R)-1-(2-chloropyridin-3-yl)ethyl (4-(5-((S)-2-cyanopropanamido)pyridin-2-yl)-1-methyl-1H-1,2,3-triazol-5-yl)carbamate], for which the EC50 was found to be 132 nM. As for `C[C@@H](OC(=O)Nc1c(-c2ccc(NC(=O)c3cnc(C(F)(F)F)nc3)cn2)nnn1C)c1cccnc1Cl` [Compound 205, (R)-1-(2-chloropyridin-3-yl)ethyl (1-methyl-4-(5-(2-(trifluoromethyl)pyrimidine-5-carboxamido)pyridin-2-yl)-1H-1,2,3-triazol-5-yl)carbamate], the EC50 worked out at 8.3 nM. Consider `C[C@@H](OC(=O)Nc1c(-c2ccc(NC(=O)c3cnc(C(F)F)nc3)cn2)nnn1C)c1cccnc1Cl` [Compound 206, (R)-1-(2-chloropyridin-3-yl)ethyl (4-(5-(2-(difluoromethyl)pyrimidine-5-carboxamido)pyridin-2-yl)-1-methyl-1H-1,2,3-triazol-5-yl)carbamate], for which the EC50 turned out to be 71.8 nM. Take `C[C@@H](OC(=O)Nc1c(-c2ccc(NC(=O)c3ccc(Cl)nc3)cn2)nnn1C)c1cc(F)cnc1F` [Compound 212, (R)-1-(2,5-difluoropyridin-3-yl)ethyl (4-(5-(6-chloronicotinamido)pyridin-2-yl)-1-methyl-1H-1,2,3-triazol-5-yl)carbamate]: the EC50 was determined as 56.4 nM.

For `C[C@@H](OC(=O)Nc1c(-c2ccc(NC(=O)c3ccnc(F)c3)cn2)nnn1C)c1cc(F)cnc1F` [Compound 213, (R)-1-(2,5-difluoropyridin-3-yl)ethyl (4-(5-(2-fluoroisonicotinamido)pyridin-2-yl)-1-methyl-1H-1,2,3-triazol-5-yl)carbamate], the EC50 is 175 nM. On to `C[C@@H](OC(=O)Nc1c(-c2ccc(NC(=O)C3(C(F)F)COC3)cn2)nnn1C)c1cc(F)cnc1F` [Compound 214, (R)-1-(2,5-difluoropyridin-3-yl)ethyl (4-(5-(3-(difluoromethyl)oxetane-3-carboxamido)pyridin-2-yl)-1-methyl-1H-1,2,3-triazol-5-yl)carbamate], for which the EC50 came to 357 nM. Then `C[C@@H](OC(=O)Nc1c(-c2ccc(NC(=O)C34CC(S(C)(=O)=O)(C3)C4)cn2)nnn1C)c1cc(F)cnc1F` [Compound 215, (R)-1-(2,5-difluoropyridin-3-yl)ethyl (1-methyl-4-(5-(3-(methylsulfonyl)bicyclo[1.1.1]pentane-1-carboxamido)pyridin-2-yl)-1H-1,2,3-triazol-5-yl)carbamate], with 2000 nM.

In general, EC50 refers to the concentration at which the effect is half-maximal.
